Values of other authors in patent publication US9408867B2, “Antifungal compositions for the treatment of skin and nails” (Veloce BioPharma, LLC, priority 2011, dated 2016).
Read-outs that look alike come from different tables or passages of the source.

What was measured:
[1] = human skin in vitro
[2] = 50% solution of DMSO in water

Row | SMILES | ratio of penetration ([1]; dissolved in DMSO) | ratio of penetration ([1]; dissolved in alcohol) | ratio of penetration ([1]; dissolved in benzene) | ratio of penetration ([1]; dissolved in dimethylacetamide) | ratio of penetration ([1]; dissolved in dimethylformamide) | rate of penetration [2]
1 | COC1=CC(=O)C[C@@H](C)[C@]12Oc1c(Cl)c(OC)cc(OC)c1C2=O [griseofulvin] | 60 | 3 | 1 | 40 | 7 | –
2 | C[C@]12CCC(=O)C=C1CC[C@@H]1[C@@H]2[C@@H](O)C[C@@]2(C)[C@H]1CC[C@]2(O)C(=O)CO [hydrocortisone] | – | – | – | – | – | markedly enhanced
